Here are results for 2 molecules from patent EP0024348A1, “Substituted 6-Phenethyl-and phenylethenyl-3,4,5,6-tetrahydro-4-hydroxytetraydropyran-2-ones in the4-R trans stereoisomeric forms and the corresponding dihydroxy acids, process for preparing and pharmaceutical composition comprising them” (Merck & Co., Inc., priority 1979, dated 1981).

Structures can show the parent of a compound that is named as a salt.

The assay deals with T1, 3-hydroxy-3-methylglutaryl coenzyme A reductase (Rattus norvegicus, UniProt P51639).
T1 sequence (P51639 1-887): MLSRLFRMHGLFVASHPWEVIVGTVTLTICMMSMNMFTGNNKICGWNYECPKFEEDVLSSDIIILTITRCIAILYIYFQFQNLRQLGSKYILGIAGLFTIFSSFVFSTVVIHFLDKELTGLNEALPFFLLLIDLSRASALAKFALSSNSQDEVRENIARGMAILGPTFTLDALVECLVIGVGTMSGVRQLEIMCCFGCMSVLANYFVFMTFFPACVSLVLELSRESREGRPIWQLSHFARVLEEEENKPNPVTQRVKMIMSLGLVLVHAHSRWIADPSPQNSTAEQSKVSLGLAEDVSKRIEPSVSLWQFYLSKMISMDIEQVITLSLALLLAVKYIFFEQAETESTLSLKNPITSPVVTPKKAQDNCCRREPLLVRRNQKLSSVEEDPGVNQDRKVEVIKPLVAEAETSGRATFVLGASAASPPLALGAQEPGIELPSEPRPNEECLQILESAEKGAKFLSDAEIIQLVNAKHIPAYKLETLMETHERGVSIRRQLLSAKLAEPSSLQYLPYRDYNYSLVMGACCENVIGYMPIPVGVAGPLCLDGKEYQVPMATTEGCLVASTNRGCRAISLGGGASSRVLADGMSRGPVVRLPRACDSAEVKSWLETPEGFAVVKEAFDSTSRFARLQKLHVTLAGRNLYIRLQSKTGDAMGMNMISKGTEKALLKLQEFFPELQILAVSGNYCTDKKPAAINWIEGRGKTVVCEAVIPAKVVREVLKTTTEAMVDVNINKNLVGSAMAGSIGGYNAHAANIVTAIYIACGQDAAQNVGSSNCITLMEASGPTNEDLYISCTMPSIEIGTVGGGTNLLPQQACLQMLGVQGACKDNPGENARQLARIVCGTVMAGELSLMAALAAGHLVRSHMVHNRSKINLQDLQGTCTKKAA
The assay can be described thus: Method A: in vitro enzyme inhibition by the method of Knauss et al. The class given is biochemical. From the text: The inhibitory activity of these compounds for the biosynthesis of cholesterol has been measured by two methods. The experimental method A has been realized in vitro by the method of H. J. Knauss, et al., J. Biol. Chem., 234, 2835 (1959) and the activity was expressed as the molar concentration IC50(M) necessary for the inhibition of 50% of the enzymatic activity. The experimental method B was the method of A. A. Kandutsch, et al., J. Biol. Chem., 248, 8403 (1973) for measuring the quantity of ^14C-cholesterol biosynthesis from acetic acid-^14C in mouse L cells. The activity is expressed for inhibition of 50% of the biosynthesis of cholesterol.

The term IC50 denotes the concentration needed to halve the response being measured. Where the note is “test by method A”, `O=C1C[C@H](O)C[C@@H](CCc2c(Cl)cc(Cl)cc2OCc2ccccc2)O1` (single isomer, unassigned) [Example 14, (+)-Trans-6-[2-(2,4-dichloro-6-phenylmethoxyphenyl)ethyl]-3,4,5,6-tetrahydro-4-hydroxy-2H-pyran-2-one] displayed a 50% inhibitory concentration (IC50) of 68 nM.
`O=C(O)C[C@H](O)C[C@H](O)/C=C/c1c(Cl)cc(Cl)cc1-c1ccc(F)cc1` (single isomer, unassigned) [Example 38, (+)-(E)-(3R*, 5S*)-7-(3,5-dichloro-4'-fluoro[1,1'-biphenyl]-2y1)-3,5-dihydroxy-6-heptenoic acid, ammonium salt]: the “potency compared with compactin” value (both tested as the sodium salts of their corresponding hydroxy acid forms) is “greater than that of compactin”. For the same molecule, the concentration for half-maximal inhibition (IC50) (tested as the sodium salts of their corresponding hydroxy acid forms, method not restated) is around 2.8 nM.
